Results taken from US20220168430A1, “THERAPEUTIC METHODS FOR TREATING HEPATITIS B” (priority 2019, published 2022).
Like-named read-outs stand apart in the source and are kept apart here.

Experiments:
HBV genome = assay: IC 50 of HBV siRNA duplexes (Table A); parameters: species or system Hepatitis B virus; settings: siRNA duplex
HBV DNA = HBV DNA in culture supernatants of HBV-infected PHH by qPCR, single agents and double combinations (Examples 1-4); format: cell-based, HBV genotype D; primary human hepatocytes; settings: Hepatitis B virus; for inhibition at 0.005 µM / inhibition at 0.015 µM / inhibition at 0.044 µM / inhibition at 0.133 µM / inhibition at 0.4 µM: HBV DNA, (V) 0.00 μg/mL; for inhibition at 0.005 µM: (VI) 0.005 μM; for inhibition at 0.015 µM: (VI) 0.015 μM; for inhibition at 0.044 µM: (VI) 0.044 μM; for inhibition at 0.133 µM: (VI) 0.133 μM; for inhibition at 0.4 µM: (VI) 0.400 μM; for EC50: HBV DNA endpoint, PHH, determined in an earlier separate experiment, read-out: EC50; for inhibition at 0.05 µM: (VII) 0.05 μM alone; for inhibition at 0.15 µM: (VII) 0.15 μM alone; for inhibition at 0.44 µM: (VII) 0.44 μM alone; for inhibition at 1.33 µM: (VII) 1.33 μM alone; for inhibition at 4 µM: (VII) 4.00 μM alone
Method: (§1) The day PHH seeding date was defined as day 0.
(§2) The PHH were infected with 400 HBV GE/cell of HBV genotype D type HBV on day 1.
(§3) The test articles were further diluted with the culture medium to the final test concentrations.
(§4) All the test articles were further diluted 100 times with the culture medium. The final concentration of DMSO in the culture medium was […].
(§5) The compounds were tested at 7 concentrations, 3-fold dilution, in triplicate.
(§6) Four two-way combinations were performed on a 5×5 matrix, in triplicate plates. Transfection reagent was present in all wells. The culture medium containing the articles were refreshed every 1 or 2 days.
DNA in the culture supernatants harvested on days 8 was isolated with QIAamp 96 DNA Blood Kit (Qiagen-51162). For each sample, 100 μl of each culture supernatant was used to extract DNA. The DNA was eluted with 180 μl of AE. HBV DNA in the culture supernatants was quantified by quatitative PCR using primers and probes outlined in Table 3. Percent inhibition of HBV DNA was calculated with the formula below:
% Inh. HBV DNA=[1−value of sample/AVG. value of Medium control]×100.
(§7) Results of double combination studies were analyzed using MacSynergy II software (Prichard and Shipman, 1992).

HBsAg = assay: microbe, parasite or virus in culture; format: cell-based, HBV genotype D; primary human hepatocytes; settings: Hepatitis B virus; for inhibition at 0.005 µM / inhibition at 0.015 µM / inhibition at 0.044 µM / inhibition at 0.133 µM / inhibition at 0.4 µM: read-out: AVERAGE % INHIBITION, HBsAg, (V) 0.00 μg/mL; for inhibition at 0.005 µM: (VI) 0.005 μM; for inhibition at 0.015 µM: (VI) 0.015 μM; for inhibition at 0.044 µM: (VI) 0.044 μM; for inhibition at 0.133 µM: (VI) 0.133 μM; for inhibition at 0.4 µM: (VI) 0.400 μM; for inhibition at 0.05 µM: (VII) 0.05 μM alone; for inhibition at 0.15 µM: (VII) 0.15 μM alone; for inhibition at 0.44 µM: (VII) 0.44 μM alone; for inhibition at 1.33 µM: (VII) 1.33 μM alone; for inhibition at 4 µM: (VII) 4.00 μM alone
Method: as §1, §2, §3, §4, §5, §6
HBsAg in the culture supernatants harvested on days 8 was measured using the HBsAg/ELISA kit (Autobio) according to the manual. The samples were diluted with PBS to get the signal in the range of the standard curve. Percent inhibition of HBsAg was calculated with the formula below:
% Inh. HBsAg=[1−HBsAg quantity of sample/[…] of DMSO control]×100
as §7

[1] = read-out: AVERAGE % INHIBITION, Exp 1
[2] = read-out: AVERAGE % INHIBITION, Exp 2

1m: "double stranded siRNA molecules selected from the group consisting of 1m, 2m, 3m ... 15m" (sense AGGUAUGUUGCCCGUUUGUUU; antisense UUUCCAUACAACGGGCAAACA; chemistry not fully specified; one strand is listed 3' to 5') [Compound 1m]
IC50 (HBV genome): 1.43 nM

8m: "double stranded siRNA molecules selected from the group consisting of 1m, 2m, 3m ... 15m" (sense GCUCAGUUUACUAGUGCCAUU; antisense UUCGAGUCAAAUGAUCACGGU; chemistry not fully specified; one strand is listed 3' to 5') [Compound 8m]
IC50 (HBV genome): 0.24 nM

5m: "double stranded siRNA molecules selected from the group consisting of 1m, 2m, 3m ... 15m" (sense CCGUGUGCACUUCGCUUCAUU; antisense UUGGCACACGUGAAGCGAAGU; chemistry not fully specified) [Compound 5m]
IC50 (HBV genome): 0.06 nM

9m: "double stranded siRNA molecules selected from the group consisting of 1m, 2m, 3m ... 15m" (sense AGGUAUGUUGCCCGUUUGUUU; antisense UUUCCAUACAACGGGCAAACA; chemistry not fully specified; one strand is listed 3' to 5') [Compound 9m]
IC50 (HBV genome): 0.13 nM

6m: "double stranded siRNA molecules selected from the group consisting of 1m, 2m, 3m ... 15m" (sense CUGGCUCAGUUUACUAGUGUU; antisense UUGACCGAGUCAAAUGAUCAC; chemistry not fully specified; one strand is listed 3' to 5') [Compound 6m]
IC50 (HBV genome): 0.05 nM

2m: "double stranded siRNA molecules selected from the group consisting of 1m, 2m, 3m ... 15m" (sense GCUCAGUUUACUAGUGCCAUU; antisense UUCGAGUCAAAUGAUCACGGU; chemistry not fully specified; one strand is listed 3' to 5') [Compound 2m]
IC50 (HBV genome): 0.37 nM

COCCCOc1cc2c(nc1OC)-c1cc(=O)c(C(=O)O)cn1[C@H](C(C)C)C2 [(VI)]
inhibition at 0.005 µM (HBV DNA; Experiment 1): 0.64%
inhibition at 0.015 µM (HBV DNA; Experiment 1): 6.77%
inhibition at 0.044 µM (HBV DNA; Experiment 1): 10.9%
inhibition at 0.133 µM (HBV DNA; Experiment 1): 26.7%
inhibition at 0.4 µM (HBV DNA; Experiment 1): 21.8%
inhibition at 0.005 µM (HBV DNA; Experiment 2): 7.21%
inhibition at 0.015 µM (HBV DNA; Experiment 2): 13.7%
inhibition at 0.044 µM (HBV DNA; Experiment 2): 19.3%
inhibition at 0.133 µM (HBV DNA; Experiment 2): 12.8%
inhibition at 0.4 µM (HBV DNA; Experiment 2): 27.1%
EC50 (HBV DNA): 6 nM
EC50 (HBsAg): 13 nM
inhibition at 0.005 µM (HBsAg; Experiment 1): 19.1%
inhibition at 0.015 µM (HBsAg; Experiment 1): 43.1%
inhibition at 0.044 µM (HBsAg; Experiment 1): 62.2%
inhibition at 0.133 µM (HBsAg; Experiment 1): 74%
inhibition at 0.4 µM (HBsAg; Experiment 1): 81%
inhibition at 0.005 µM (HBsAg; Experiment 2): 11.9%
inhibition at 0.015 µM (HBsAg; Experiment 2): 38.1%
inhibition at 0.044 µM (HBsAg; Experiment 2): 56.7%
inhibition at 0.133 µM (HBsAg; Experiment 2): 69.7%
inhibition at 0.4 µM (HBsAg; Experiment 2): 77.4%

12m: "double stranded siRNA molecules selected from the group consisting of 1m, 2m, 3m ... 15m" (sense GCCGAUCCAUACUGCGGAAUU; antisense UUCGGCUAGGUAUGACGCCUU; chemistry not fully specified; one strand is listed 3' to 5') [Compound 12m]
IC50 (HBV genome): 0.16 nM

14m: "double stranded siRNA molecules selected from the group consisting of 1m, 2m, 3m ... 15m" (sense GCUCAGUUUACUAGUGCCAUU; antisense UUCGAGUCAAAUGAUCACGGU; chemistry not fully specified; one strand is listed 3' to 5') [Compound 14m]
IC50 (HBV genome): 0.16 nM

13m: "double stranded siRNA molecules selected from the group consisting of 1m, 2m, 3m ... 15m" (sense GCCGAUCCAUACUGCGGAAUU; antisense UUCGGCUAGGUAUGACGCCUU; chemistry not fully specified; one strand is listed 3' to 5') [Compound 13m]
IC50 (HBV genome): 0.2 nM

3m: "double stranded siRNA molecules selected from the group consisting of 1m, 2m, 3m ... 15m" (sense CCGUGUGCACUUCGCUUCAUU; antisense UUGGCACACGUGAAGCGAAGU; chemistry not fully specified) [Compound 3m]
IC50 (HBV genome): 0.06 nM

Cn1cnc(COC(=O)N[C@H]2CCc3c(C(=O)Nc4ccc(F)c(Cl)c4)ccc(F)c32)n1 [(VII)]
inhibition at 0.05 µM (HBV DNA; Exp 1): -22.6%
inhibition at 0.15 µM (HBV DNA; Exp 1): 28.7%
inhibition at 0.44 µM (HBV DNA; Exp 1): 50%
inhibition at 1.33 µM (HBV DNA; Exp 1): 53.9%
inhibition at 4 µM (HBV DNA; Exp 1): 56.2%
inhibition at 0.05 µM (HBV DNA; Exp 2): -0.21%
inhibition at 0.15 µM (HBV DNA; Exp 2): 16.1%
inhibition at 0.44 µM (HBV DNA; Exp 2): 31.2%
inhibition at 1.33 µM (HBV DNA; Exp 2): 32.9%
inhibition at 4 µM (HBV DNA; Exp 2): 41.3%
EC50 (HBV DNA): 76 nM
EC50 (HBsAg): > 4000 nM
inhibition at 0.05 µM (HBsAg; [1]): -14.1%
inhibition at 0.15 µM (HBsAg; [1]): -5.43%
inhibition at 0.44 µM (HBsAg; [1]): -9.81%
inhibition at 1.33 µM (HBsAg; [1]): 29.9%
inhibition at 4 µM (HBsAg; [1]): 49.6%
inhibition at 0.05 µM (HBsAg; [2]): -3.42%
inhibition at 0.15 µM (HBsAg; [2]): -8.51%
inhibition at 0.44 µM (HBsAg; [2]): 1.73%
inhibition at 1.33 µM (HBsAg; [2]): 29.4%
inhibition at 4 µM (HBsAg; [2]): 48.7%

10m: "double stranded siRNA molecules selected from the group consisting of 1m, 2m, 3m ... 15m" (sense GCCGAUCCAUACUGCGGAAUU; antisense UUCGGCUAGGUAUGACGCCUU; chemistry not fully specified; one strand is listed 3' to 5') [Compound 10m]
IC50 (HBV genome): 0.34 nM
